US20060263802A1 (priority 2003, published 2006)

How the values were obtained:
Assay type in all cases: binding
[1] = tested on: human monoclonal antibody CRJB
[2] = tested on: human monoclonal antibody CR57
[3] = tested on: human monoclonal antibody CRJA
[4] = tested on: human monoclonal antibody CRJB; remark: listed apart in the source
[5] = tested on: human monoclonal antibody CR57; remark: listed apart in the source
[6] = tested on: human monoclonal antibody CRJA; remark: listed apart in the source

## VEVHLPDVHNQVSGV
[1]
  Binding of human monoclonal antibody CRJB to linear peptide (PEPSCAN-ELISA signal): 141
[2]
  Binding of human monoclonal antibody CR57 to linear peptide (PEPSCAN-ELISA signal): 106
[3]
  Binding of human monoclonal antibody CRJA to linear peptide (PEPSCAN-ELISA signal): 117
[4]
  Binding of CRJB to looped/cyclic peptide (PEPSCAN-ELISA signal): 104
[5]
  Binding of CR57 to looped/cyclic peptide (PEPSCAN-ELISA signal): 138
[6]
  Binding of CRJA to looped/cyclic peptide (PEPSCAN-ELISA signal): 120

## GTWVAMQTSNETKWC
[1]
  Binding of CRJB to linear peptide (PEPSCAN-ELISA signal): 113
[2]
  Binding of CR57 to linear peptide (PEPSCAN-ELISA signal): 58
[3]
  Binding of CRJA to linear peptide (PEPSCAN-ELISA signal): 61
[4]
  Binding of CRJB (10 μg/ml) to looped/cyclic peptide (PEPSCAN-ELISA): 85
[5]
  Binding of CR57 (10 μg/ml) to looped/cyclic peptide (PEPSCAN-ELISA): 71
[6]
  Binding of CRJA (10 μg/ml) to looped/cyclic peptide (PEPSCAN-ELISA): 62

## ADAHYKSVRTWNEIL
[1]
  Binding of CRJB to linear peptide (PEPSCAN-ELISA signal): 100
[2]
  Binding of CR57 to linear peptide (PEPSCAN-ELISA signal): 56
[3]
  Binding of CRJA to linear peptide (PEPSCAN-ELISA signal): 93
[4]
  Binding of CRJB (10 μg/ml) to looped/cyclic peptide (PEPSCAN-ELISA): 82
[5]
  Binding of CR57 (10 μg/ml) to looped/cyclic peptide (PEPSCAN-ELISA): 69
[6]
  Binding of CRJA (10 μg/ml) to looped/cyclic peptide (PEPSCAN-ELISA): 90

## SKGSETCGFVDERGL
[1]
  Binding of CRJB to linear peptide (PEPSCAN-ELISA signal): 102
[2]
  Binding of CR57 to linear peptide (PEPSCAN-ELISA signal): 92
[3]
  Binding of CRJA to linear peptide (PEPSCAN-ELISA signal): 104
[4]
  Binding of CRJB (10 μg/ml) to looped/cyclic peptide (PEPSCAN-ELISA): 77
[5]
  Binding of CR57 (10 μg/ml) to looped/cyclic peptide (PEPSCAN-ELISA): 104
[6]
  Binding of CRJA (10 μg/ml) to looped/cyclic peptide (PEPSCAN-ELISA): 99

## HDFRSDEIEHLVVEE
[1]
  Binding of CRJB to linear peptide (PEPSCAN-ELISA signal): 107
[2]
  Binding of CR57 to linear peptide (PEPSCAN-ELISA signal): 69
[3]
  Binding of CRJA to linear peptide (PEPSCAN-ELISA signal): 78
[4]
  Binding of CRJB (10 μg/ml) to looped/cyclic peptide (PEPSCAN-ELISA): 79
[5]
  Binding of CR57 (10 μg/ml) to looped/cyclic peptide (PEPSCAN-ELISA): 24
[6]
  Binding of CRJA (10 μg/ml) to looped/cyclic peptide (PEPSCAN-ELISA): 111

## VLIPEMQSSLLQQHM
[1]
  Binding of CRJB to linear peptide (PEPSCAN-ELISA signal): 104
[2]
  Binding of CR57 to linear peptide (PEPSCAN-ELISA signal): 92
[3]
  Binding of CRJA to linear peptide (PEPSCAN-ELISA signal): 78
[4]
  Binding of CRJB (10 μg/ml) to looped/cyclic peptide (PEPSCAN-ELISA): 85
[5]
  Binding of CR57 (10 μg/ml) to looped/cyclic peptide (PEPSCAN-ELISA): 114
[6]
  Binding of CRJA (10 μg/ml) to looped/cyclic peptide (PEPSCAN-ELISA): 92

## KHFRPTPDACRAAYN
[1]
  Binding of CRJB to linear peptide (PEPSCAN-ELISA signal): 112
[2]
  Binding of CR57 to linear peptide (PEPSCAN-ELISA signal): 73
[3]
  Binding of CRJA to linear peptide (PEPSCAN-ELISA signal): 85
[4]
  Binding of CRJB (10 μg/ml) to looped/cyclic peptide (PEPSCAN-ELISA signal): 72
[5]
  Binding of CR57 (10 μg/ml) to looped/cyclic peptide (PEPSCAN-ELISA signal): 70
[6]
  Binding of CRJA (10 μg/ml) to looped/cyclic peptide (PEPSCAN-ELISA signal): 41

## GGRCHPHVNGVFFNG
[1]
  Binding of CRJB to linear peptide (PEPSCAN-ELISA signal): 119
[2]
  Binding of CR57 to linear peptide (PEPSCAN-ELISA signal): 86
[3]
  Binding of CRJA to linear peptide (PEPSCAN-ELISA signal): 110
[4]
  Binding of CRJB (10 μg/ml) to looped/cyclic peptide (PEPSCAN-ELISA): 110
[5]
  Binding of CR57 (10 μg/ml) to looped/cyclic peptide (PEPSCAN-ELISA): 134
[6]
  Binding of CRJA (10 μg/ml) to looped/cyclic peptide (PEPSCAN-ELISA): 107

## VVEELVRKREECLDA
[1]
  Binding of CRJB to linear peptide (PEPSCAN-ELISA signal): 108
[2]
  Binding of CR57 to linear peptide (PEPSCAN-ELISA signal): 62
[3]
  Binding of CRJA to linear peptide (PEPSCAN-ELISA signal): 90
[4]
  Binding of CRJB (10 μg/ml) to looped/cyclic peptide (PEPSCAN-ELISA): 5
[5]
  Binding of CR57 (10 μg/ml) to looped/cyclic peptide (PEPSCAN-ELISA): 30
[6]
  Binding of CRJA (10 μg/ml) to looped/cyclic peptide (PEPSCAN-ELISA): 59

## IDIHHLSCPNNLVVE
[1]
  Binding of CRJB to linear peptide (PEPSCAN-ELISA signal): 102
[2]
  Binding of CR57 to linear peptide (PEPSCAN-ELISA signal): 69
[3]
  Binding of CRJA to linear peptide (PEPSCAN-ELISA signal): 61
[4]
  Binding of CRJB (10 μg/ml) to looped/cyclic peptide (PEPSCAN-ELISA signal): 59
[5]
  Binding of CR57 (10 μg/ml) to looped/cyclic peptide (PEPSCAN-ELISA signal): 55
[6]
  Binding of CRJA (10 μg/ml) to looped/cyclic peptide (PEPSCAN-ELISA signal): 55

## RTVKTTKESLVIISP
[1]
  Binding of CRJB to linear peptide (PEPSCAN-ELISA signal): 120
[2]
  Binding of CR57 to linear peptide (PEPSCAN-ELISA signal): 82
[3]
  Binding of CRJA to linear peptide (PEPSCAN-ELISA signal): 103
[4]
  Binding of CRJB (10 μg/ml) to looped/cyclic peptide (PEPSCAN-ELISA signal): 69
[5]
  Binding of CR57 (10 μg/ml) to looped/cyclic peptide (PEPSCAN-ELISA signal): 88
[6]
  Binding of CRJA (10 μg/ml) to looped/cyclic peptide (PEPSCAN-ELISA signal): 88

## TTTFKRKHFRPTPDA
[1]
  Binding of CRJB to linear peptide (PEPSCAN-ELISA signal): 108
[2]
  Binding of CR57 to linear peptide (PEPSCAN-ELISA signal): 80
[3]
  Binding of CRJA to linear peptide (PEPSCAN-ELISA signal): 76
[4]
  Binding of CRJB (10 μg/ml) to looped/cyclic peptide (PEPSCAN-ELISA signal): 99
[5]
  Binding of CR57 (10 μg/ml) to looped/cyclic peptide (PEPSCAN-ELISA signal): 90
[6]
  Binding of CRJA (10 μg/ml) to looped/cyclic peptide (PEPSCAN-ELISA signal): 93

## PNNLVVEDEGCTNLS
[1]
  Binding of CRJB to linear peptide (PEPSCAN-ELISA signal): 107
[2]
  Binding of CR57 to linear peptide (PEPSCAN-ELISA signal): 78
[3]
  Binding of CRJA to linear peptide (PEPSCAN-ELISA signal): 86
[4]
  Binding of CRJB (10 μg/ml) to looped/cyclic peptide (PEPSCAN-ELISA signal): 60
[5]
  Binding of CR57 (10 μg/ml) to looped/cyclic peptide (PEPSCAN-ELISA signal): 100
[6]
  Binding of CRJA (10 μg/ml) to looped/cyclic peptide (PEPSCAN-ELISA signal): 96

## FRSDEIEHLVVEELV
[1]
  Binding of CRJB to linear peptide (PEPSCAN-ELISA signal): 114
[2]
  Binding of CR57 to linear peptide (PEPSCAN-ELISA signal): 86
[3]
  Binding of CRJA to linear peptide (PEPSCAN-ELISA signal): 101
[4]
  Binding of CRJB (10 μg/ml) to looped/cyclic peptide (PEPSCAN-ELISA): 79
[5]
  Binding of CR57 (10 μg/ml) to looped/cyclic peptide (PEPSCAN-ELISA): 132
[6]
  Binding of CRJA (10 μg/ml) to looped/cyclic peptide (PEPSCAN-ELISA): 94

## REECLDALESIMTTK
[1]
  Binding of CRJB to linear peptide (PEPSCAN-ELISA signal): 110
[2]
  Binding of CR57 to linear peptide (PEPSCAN-ELISA signal): 94
[3]
  Binding of CRJA to linear peptide (PEPSCAN-ELISA signal): 94
[4]
  Binding of CRJB (10 μg/ml) to looped/cyclic peptide (PEPSCAN-ELISA): 79
[5]
  Binding of CR57 (10 μg/ml) to looped/cyclic peptide (PEPSCAN-ELISA): 89
[6]
  Binding of CRJA (10 μg/ml) to looped/cyclic peptide (PEPSCAN-ELISA): 92
